For data set [1], the target named is T1, wild type KDM4A (Homo sapiens, UniProt O75164).
T1 construct: human KDM4A-jmjC domain (catalytic domain of KDM4A); 6xHis (N); host or cells: E. coli BL21 (DE3)
T1 sequence (O75164 142-308 limits assumed): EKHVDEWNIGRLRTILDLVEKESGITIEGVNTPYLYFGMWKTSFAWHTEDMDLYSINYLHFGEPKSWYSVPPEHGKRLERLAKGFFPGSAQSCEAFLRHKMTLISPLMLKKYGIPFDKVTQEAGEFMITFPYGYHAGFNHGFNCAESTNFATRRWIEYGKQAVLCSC
Briefly: Coupled fluorescence (FDH/NADH) assay, kinetic parameters with 2OG. The class given is biochemical. As to conditions: H3K9me3 demethylation, saturating peptide, 2OG as cofactor.

Another data set deals with T2, KDM4A-F185A (Homo sapiens, UniProt O75164, F185A).
T2 construct: human KDM4A-jmjC domain (catalytic domain of KDM4A); 6xHis (N); host or cells: E. coli BL21 (DE3)
T2 sequence (O75164 142-308 F185A limits assumed): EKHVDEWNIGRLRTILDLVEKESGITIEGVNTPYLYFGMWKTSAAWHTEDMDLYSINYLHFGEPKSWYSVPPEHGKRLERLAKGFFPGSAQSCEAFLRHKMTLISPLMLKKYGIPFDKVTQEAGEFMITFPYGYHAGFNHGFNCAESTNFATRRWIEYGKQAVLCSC
The data set is described as follows: MALDI-MS end-point demethylase assay on H3K9me3 peptide. In kind it is biochemical. The text has this:
To develop an appropriate inhibitor, we selected N-oxalyl glycine (NOG, 2) scaffold because of its structural similarity with 2OG and the ability to inhibit 2OG-utilizing enzymes including KDMs (Figure 1C).[29]−[31] Substituting −CH2– at C3 of 2OG with −NH– in NOG prevents its oxidative decarboxylation by KDMs, making the inhibitor cofactor-competitive. […] We synthesized a panel of eight NOG analogues (3–10), derived from L-amino acids, carrying varied steric substituents at C4, with the reasoning that a bulky substituent at C4 would selectively fit into the expanded pocket of F185A over wild type KDM4A (Figures 2B and S1–S6, Schemes S1 and S2). The inhibitory effect of each compound was determined based on the extent of enzyme-catalyzed demethylation of a canonical peptide substrate corresponding to the N-terminus of histone 3 carrying trimethylated lysine at position 9 (H3K9me3). […] Such orthogonal inhibition of the engineered demethylase constitutes a powerful chemical probe to study the functions of a specific member of an enzyme family without issues of off-target activity. […]
(§1) assay (Biorad) kit with BSA concentrations as a standard. […]
8. Demethylase activity of the wild type and mutant KDM4 proteins on peptide substrate To monitor enzymatic activity, a demethylase activity assay was optimized and then observed through MALDI-TOF.7 Each histone demethylase assay sample included either wild type or mutant enzyme (10µM KDM4A, 7.5µM KDM4C, 10µM KDM4D, or 1µM KDM4E), 10 µM peptide, 200 µM 2OG, 50 mM Tris pH 8, […], 0-200µM NOG analogue, and 2 mM L-ascorbic acid with a total assay volume of 10 µL. Fe(II) supplement and L-ascorbic acid […]
Lastly, the 2OG and peptide were […]
positive mode and analyzed on Bruker FlexAnalysis software. The percent demethylated peptide […]
(§2) the multiple demethylation events on the peptide. […]
varying concentrations (0-10 µM). […] The fluorescence intensity was measured with excitation = 340 nm and emission = 490 nm on a TECAN Infinite M1000Pro. […]
The set up and analysis for IC50 of L-Leu NOG against KDM4A F185A enzyme was similar to that described in the coupled fluorescence assay section, but adjusted to function as an end point assay. […]
and varying concentration of compounds (NOGs 6, 9 and 10) and a substrate cocktail (200 µM 2OG and 60 µM H3K9me3 peptide). Different concentrations of NOG 6 were measured at one time point ranging for 1-5 hours. For 9 and 10, the same set-up remained, but enzymatic activity was measured via MALDI-TOF analysis, and relative activity and inhibition was calculated for different NOG concentrations as described above. […]
and analyzed on Bruker FlexAnalysis software. The percent demethylated peptide was calculated by first multiplying the K27me1 peak by 2 and the K27me0 peak by 3 to account for the multiple

The target in data set [2] is T1, wild type KDM4A. Described as above. The class given is biochemical. As to conditions: H3K9me3 peptide, 200 µM 2OG, fixed concentration of NOG analogue.
Excerpt: To develop an appropriate inhibitor, we selected N-oxalyl glycine (NOG, 2) scaffold because of its structural similarity with 2OG and the ability to inhibit 2OG-utilizing enzymes including KDMs (Figure 1C).[29]−[31] Substituting −CH2– at C3 of 2OG with −NH– in NOG prevents its oxidative decarboxylation by KDMs, making the inhibitor cofactor-competitive. […] We synthesized a panel of eight NOG analogues (3–10), derived from L-amino acids, carrying varied steric substituents at C4, with the reasoning that a bulky substituent at C4 would selectively fit into the expanded pocket of F185A over wild type KDM4A (Figures 2B and S1–S6, Schemes S1 and S2). The inhibitory effect of each compound was determined based on the extent of enzyme-catalyzed demethylation of a canonical peptide substrate corresponding to the N-terminus of histone 3 carrying trimethylated lysine at position 9 (H3K9me3). […] Such orthogonal inhibition of the engineered demethylase constitutes a powerful chemical probe to study the functions of a specific member of an enzyme family without issues of off-target activity.
as §1
8. […]
2 mM L-ascorbic acid with a total assay volume of 10 µL. Fe(II) supplement and L-ascorbic acid
Lastly, the 2OG and peptide were
positive mode and analyzed on Bruker FlexAnalysis software. The percent demethylated peptide
as §2

Substrate in data set [3]: O=C(O)CCC(=O)C(=O)O
The data set is described as follows: purified protein, by the assay type. As to conditions: other: saturating H3K9me3 peptide; pH 8.0; 37.0 °C.

Results on six molecules are retold here after article PMC11783601, “Analogue-Sensitive Inhibition of Histone Demethylases Uncovers Member-Specific Function in Ribosomal Protein Synthesis” (Journal of the American Chemical Society, 2025).

On to `O=C(O)CCC(=O)C(=O)O` [compound 1, 2-oxoglutarate], for which the kcat at wild type KDM4A [1] (listed as 2OG) is given as 0.26 ± 0.01 min^–1; at wild type KDM4A [1] (listed as 2OG 1) it was 0.2562±0.0072 min^–1. Regarding `O=C(O)CNC(=O)C(=O)O` [compound 2, N-oxalyl glycine, reference compound], the “inhibition of F185A mutant demethylase activity (MALDI-MS)” value at KDM4A-F185A (H3K9me3 peptide, 200 µM 2OG, fixed concentration of NOG analogue) is “weakly inhibited”. Further, the “inhibition of wild type KDM4A demethylase activity (MALDI-MS)” value at wild type KDM4A [2] is given as “weakly inhibited”. The term IC50 denotes the point on the concentration scale where inhibition reaches its midpoint. Read a high IC50 as a need for much substance. In the case of `O=C(O)C(=O)N[C@@H](Cc1ccccc1)C(=O)O` [compound 9, phenylalanine NOG], the IC50 against KDM4A-F185A amounted to 28.7 ± 1.3 µM. In turn, `O=C(O)C(=O)N[C@@H](CC1CCCCC1)C(=O)O` [compound 10, cyclohexyl NOG] had an IC50 against KDM4A-F185A of 4.7 ± 1.7 µM.

B1: wild type KDM4A (Homo sapiens) (protein)
chain: EKHVDEWNIGRLRTILDLVEKESGITIEGVNTPYLYFGMWKTSFAWHTEDMDLYSINYLHFGEPKSWYSVPPEHGKRLERLAKGFFPGSAQSCEAFLRHKMTLISPLMLKKYGIPFDKVTQEAGEFMITFPYGYHAGFNHGFNCAESTNFATRRWIEYGKQAVLCSC
The term Km denotes the concentration of substrate that gives half-maximal velocity. In the case of B1, the Km in data set [3] was 7.52 ± 1.2 µM.

B2: KDM4A-F185A (Homo sapiens; F185A) (protein)
chain: EKHVDEWNIGRLRTILDLVEKESGITIEGVNTPYLYFGMWKTSAAWHTEDMDLYSINYLHFGEPKSWYSVPPEHGKRLERLAKGFFPGSAQSCEAFLRHKMTLISPLMLKKYGIPFDKVTQEAGEFMITFPYGYHAGFNHGFNCAESTNFATRRWIEYGKQAVLCSC
In the case of B2, in data set [3], the Km was 52 ± 11 µM.
